Results on 12 compounds are retold here after ChEMBL document CHEMBL1201862, “PubChem BioAssay data set” (2004).

SMILES strings stand for the structures.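 1) Cells in 96-well plates. 2) Compound, 48 h, 5 concentrations. 3) Linear interpolation between surrounding doses. 4) Unreached endpoint = highest concentration. GI50: concentration for 50% inhibition of growth.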 The source made the active and inactive calls. Cut-off read from the data, not from the text of the source: active = GI50 up to about 1.1 µM and inactive = higher.

Some test systems named below: 786-0; COLO 205; DU-145; EKVX; HCT-15; MCF7; OVCAR-5; PC-3; RPMI-8226; SF-295; SF-539; SK-OV-3; SNB-75; T47D; TK-10; U-251; UO-31; NCI-H522; Hs-578T.
Holding throughout (test): NCI anticancer screen, dose series, 48 h

As for `Nc1ccn([C@H]2CO[C@@H](CO)[C@@H]2O)c(=O)n1`, the GI50 in the test with 786-0 was > 100 µM (inactive); with COLO 205 it was > 100 µM (inactive); in the test on DU-145, > 100 µM (inactive); in the test with EKVX, > 100 µM (inactive); in the test on HCT-15, over 100 µM; with MCF7, > 100 µM (inactive). Besides, the GI50 in the test on OVCAR-5, in the test on PC-3, with RPMI-8226, in the test with SF-295, with SF-539 and in the test with SK-OV-3 was > 100 µM (inactive) throughout. Moreover, the GI50 in the test on SNB-75, with T47D, in the test on TK-10, in the test on U-251 and with UO-31 was > 100 µM (inactive) in each case.
Turning to `CC1(C)OCC(COC(=O)NCn2cc(-c3ccccc3)nn2)O1` (centres undefined), the GI50 with 786-0 is > 100 µM (inactive); in the test with COLO 205, > 100 µM (inactive); in the test on DU-145, > 100 µM (inactive); in the test on EKVX, > 100 µM (inactive); in the test with HCT-15, over 100 µM; in the test on MCF7 it was > 100 µM (inactive). Besides, the GI50 in the test on NCI-H522, in the test with OVCAR-5, with PC-3, with RPMI-8226, in the test on SF-295 and in the test on SF-539 was > 100 µM (inactive) throughout. The GI50 in the test on SNB-75, with TK-10 and in the test on U-251 was > 100 µM (inactive) throughout.
Take `COc1ccc([Se]c2ccc(OC)cc2)cc1`: the GI50 with 786-0 was > 100 µM (inactive); in the test with COLO 205, > 100 µM (inactive); with HCT-15, 68.1 µM; with NCI-H522, 27.2 µM (inactive); in the test with RPMI-8226 it was 24.4 µM (inactive); in the test on SF-295, > 100 µM (inactive). Moreover, the GI50 with SF-539 is 73.3 µM (inactive); with SK-OV-3, > 100 µM (inactive); in the test on SNB-75, 19.3 µM (inactive); in the test on TK-10, > 100 µM (inactive); with U-251 it was > 100 µM (inactive); in the test with UO-31 it was 2.09 µM (inactive).
`COC(=O)c1c2c(cc3c1CC1(Cc4cc5c(c(C=O)c4C1)CCCC5)C3)CCCC2` (centres undefined): the GI50 was > 100 µM (inactive) in the test with 786-0; 20.7 µM (inactive) in the test on COLO 205; 52.4 µM (inactive) in the test on EKVX; 34.4 µM with HCT-15; 29.2 µM (inactive) with Hs-578T; 27 µM (inactive) with MCF7. Besides, the GI50 in the test with NCI-H522 is 32.1 µM (inactive); in the test with OVCAR-5, > 100 µM (inactive); with PC-3, 40.5 µM (inactive); with RPMI-8226, > 100 µM (inactive); in the test with SF-295, > 100 µM (inactive); with SF-539 it was 74.8 µM (inactive). The GI50 is > 100 µM (inactive) in the test with SK-OV-3; 45.3 µM (inactive) in the test with T47D; 97.9 µM (inactive) in the test on TK-10; 43.8 µM (inactive) in the test with U-251; 0.103 µM (active) in the test on UO-31.
Turning to `C1=C2/CC[C@H](Sc3ccccc3)C2C2(CCCCC/1)OCCO2` (some centres undefined), the GI50 in the test with 786-0 was 42.4 µM (inactive); in the test on COLO 205 it was 21.6 µM (inactive); in the test on EKVX it was 32.9 µM (inactive); with RPMI-8226, 17.6 µM (inactive); with SF-295, 27.5 µM (inactive); in the test with SF-539 it was 41.8 µM (inactive). For the same compound, the values for the GI50 with SNB-75, with TK-10 and in the test with U-251 were 23.9 µM (inactive), 83.9 µM (inactive) and 29.3 µM (inactive), respectively.
With `Cc1nn2c(C(=O)N/N=C/c3ccc([N+](=O)[O-])cc3)c(C)nc2s1`, the GI50 was > 100 µM (inactive) with 786-0; > 100 µM (inactive) in the test with COLO 205; > 100 µM (inactive) in the test on DU-145; > 100 µM (inactive) in the test on EKVX; over 100 µM in the test with HCT-15; > 100 µM (inactive) in the test on Hs-578T. Moreover, the GI50 with MCF7 was 90.4 µM (inactive); with NCI-H522, 51.2 µM (inactive); with OVCAR-5, > 100 µM (inactive); with SF-295, > 100 µM (inactive); with SF-539, 31.4 µM (inactive); in the test with SK-OV-3, 28.4 µM (inactive). Also, the GI50 in the test on SNB-75 is 50.5 µM (inactive); in the test with T47D, > 100 µM (inactive); in the test with TK-10, 36.7 µM (inactive); with U-251, 23.6 µM (inactive); with UO-31, 34.4 µM (inactive).
Turning to `COC(=O)C1=C(OC(=O)/C(=C/c2c(F)cccc2F)c2ccccc2)C(C(=O)OC)[C@@]2(O)[C@@H](C(=O)OC)[C@H](C)C[C@@H]1[C@@H]2C(=O)OC` (some centres undefined), the GI50 was > 100 µM (inactive) with 786-0; > 100 µM (inactive) in the test with COLO 205; > 100 µM (inactive) in the test on DU-145; > 100 µM (inactive) with EKVX; over 100 µM in the test on HCT-15; 6.76 µM (inactive) with NCI-H522. In addition, the GI50 in the test on OVCAR-5, in the test on PC-3, with SF-295, with SF-539, with SK-OV-3 and in the test on SNB-75 was > 100 µM (inactive) in each case. Moreover, the GI50 is > 100 µM (inactive) with T47D, > 100 µM (inactive) with TK-10, > 100 µM (inactive) in the test on U-251 and 2.9 µM (inactive) with UO-31.
Consider `CCOC(=O)c1nnsc1NC(=O)NCCCCCCn1c(=O)n(CCCCCCNC(=O)Nc2snnc2C(=O)OCC)c(=O)n(CCCCCCNC(=O)Nc2snnc2C(=O)OCC)c1=O`, for which the GI50 is 16.7 µM (inactive) with 786-0; > 100 µM (inactive) in the test with COLO 205; 49.3 µM (inactive) in the test on DU-145; 60.4 µM (inactive) with EKVX; over 100 µM with HCT-15; 13.7 µM (inactive) in the test on Hs-578T. Further, the GI50 is 97.3 µM (inactive) in the test with MCF7; > 100 µM (inactive) with OVCAR-5; 50.9 µM (inactive) with PC-3; 11 µM (inactive) with RPMI-8226; 16.9 µM (inactive) in the test with SF-295; 40.2 µM (inactive) with SK-OV-3. Also, the GI50 in the test on SNB-75 was 29.1 µM (inactive); in the test on T47D, 33 µM (inactive); in the test on U-251, 19.3 µM (inactive); with UO-31, 45.4 µM (inactive).
For the compound `C/C(=N\Nc1nc2ccccc2[nH]1)c1cnccn1`, the GI50 with 786-0 was 0.263 µM (active); with COLO 205, 0.415 µM (active); in the test on EKVX it was 0.491 µM (active); in the test with HCT-15, 0.313 µM; in the test with Hs-578T, 19.8 µM (inactive); in the test with MCF7, 0.542 µM (active). Also, the GI50 is 0.169 µM (active) in the test on NCI-H522; 6.84 µM (inactive) in the test with OVCAR-5; 3.92 µM (inactive) with PC-3; 0.533 µM (active) in the test with RPMI-8226; 1.77 µM (inactive) in the test with SF-295; 0.713 µM (active) with SF-539. The GI50 is 0.607 µM (active) in the test on SK-OV-3; 3.61 µM (inactive) in the test on SNB-75; 0.437 µM (active) with T47D; 4.09 µM (inactive) in the test with TK-10; 0.628 µM (active) with U-251; 0.548 µM (active) in the test with UO-31.
Regarding `Clc1ccc(-c2nnc(C34CC5CC(CC(C5)C3)C4)o2)cc1`, the GI50 in the test with 786-0 was > 100 µM (inactive); in the test on COLO 205 it was > 100 µM (inactive); in the test on DU-145, > 100 µM (inactive); in the test with EKVX, > 100 µM (inactive); with HCT-15, over 100 µM; in the test on Hs-578T it was > 100 µM (inactive). Further, the GI50 in the test on NCI-H522, with OVCAR-5, with PC-3, in the test with RPMI-8226, in the test on SF-295 and with SF-539 was > 100 µM (inactive) in each case. In addition, the GI50 is > 100 µM (inactive) with SK-OV-3; > 100 µM (inactive) with SNB-75; > 100 µM (inactive) in the test on T47D; > 100 µM (inactive) in the test on U-251; 3.78 µM (inactive) in the test with UO-31.
In the case of `CC1(O)C(=O)OC2CC([C@]3(O)CCC4[C@@H]5C[C@H]6O[C@]67[C@@H](O)C=CC(=O)[C@]7(C)C5CC[C@@]43C)C1(C)C2` (some centres undefined), the GI50 in the test with 786-0 is 12.9 µM (inactive); with COLO 205 it was 6.93 µM (inactive); with DU-145, 26.5 µM (inactive); in the test on EKVX, 45 µM (inactive); with HCT-15 it was 17.9 µM; with Hs-578T it was 26.3 µM (inactive). Also, the GI50 with NCI-H522 was 1.82 µM (inactive); in the test with OVCAR-5, 23.8 µM (inactive); in the test on PC-3 it was 20.1 µM (inactive); with RPMI-8226, 3.24 µM (inactive); in the test on SF-295 it was 34.6 µM (inactive); in the test with SF-539, 18.2 µM (inactive). The GI50 in the test on SK-OV-3 was 47.9 µM (inactive); in the test on SNB-75, 29.8 µM (inactive); in the test with T47D it was 5.97 µM (inactive); in the test with TK-10, 8.73 µM (inactive); with U-251, 23.5 µM (inactive); with UO-31, 22.9 µM (inactive).
`CC(O[Si](c1ccccc1)(c1ccccc1)C(C)(C)C)[C@H](NC(=O)OC(C)(C)C)C(=O)O[Si](c1ccccc1)(c1ccccc1)C(C)(C)C` (some centres undefined): the GI50 was 13.2 µM (inactive) in the test with 786-0; 13.2 µM (inactive) in the test on COLO 205; 12.6 µM (inactive) in the test with DU-145; 11.9 µM (inactive) with EKVX; 5.24 µM with HCT-15; 19.2 µM (inactive) in the test with Hs-578T. For the same compound, the GI50 with MCF7 was 17.9 µM (inactive); with OVCAR-5 it was 15.9 µM (inactive); in the test with PC-3 it was 8.38 µM (inactive); in the test on RPMI-8226, 10.9 µM (inactive); with SF-295, 8.04 µM (inactive); with SK-OV-3 it was 16.3 µM (inactive). Also, the GI50 was 15.4 µM (inactive) with SNB-75; 5.41 µM (inactive) with T47D; 16.9 µM (inactive) in the test on TK-10; 14.4 µM (inactive) in the test with U-251; 13.2 µM (inactive) with UO-31.
